The record followed here is patent US7855290B2, “Pyridine derivatives and pyrimidine derivatives (3)” (Eisai R&D Management Co., Ltd., priority 2005, dated 2010).

T1 sequence (P08581 956-1390 limits assumed): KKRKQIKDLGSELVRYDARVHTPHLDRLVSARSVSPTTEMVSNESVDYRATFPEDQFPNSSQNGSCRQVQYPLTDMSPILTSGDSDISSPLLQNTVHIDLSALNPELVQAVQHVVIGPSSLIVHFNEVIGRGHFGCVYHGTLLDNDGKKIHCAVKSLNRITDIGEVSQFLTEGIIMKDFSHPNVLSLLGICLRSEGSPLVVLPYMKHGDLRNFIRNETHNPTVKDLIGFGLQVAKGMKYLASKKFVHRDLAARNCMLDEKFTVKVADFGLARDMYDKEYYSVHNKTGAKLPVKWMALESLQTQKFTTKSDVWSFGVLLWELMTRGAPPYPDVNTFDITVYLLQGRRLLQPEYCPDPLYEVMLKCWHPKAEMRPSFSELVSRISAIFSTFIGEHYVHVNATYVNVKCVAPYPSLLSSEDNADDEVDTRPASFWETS

The assay addresses T1, His6-HGFR (HGFR cytoplasmic domain) (Homo sapiens, UniProt P08581).
T1 construct: made in house; host or cells: Sf9 insect cells (Spodoptera frugiperda), baculovirus, pFastBac-HT vector
The assay can be described thus: Inhibitory activity against HGFR tyrosine kinase activity (HTRF). The format is biochemical. The following applies: biotin-poly(GT), ATP, 30° C. 10 min. From the text: The cytoplasmic domain of HGFR (Genbank Accession No. J02958) is a 1.3 kb DNA fragment beginning with Lys974 and including a stop codon, and described by Park et al. (Proc. Natl. Acad. Sci. U.S.A. 84(18), 6379-6383, 1987). The DNA fragment was isolated from the human placental cDNA library (purchased from Clontech) by PCR (TaKaRa Ex Taq™ Kit, purchased from TaKaRa) using two kinds of primers (SEQ ID NO: 1,5′-[…]-3′ and SEQ ID NO: 2,5′-[…]-3′, purchased from Invitrogen). The DNA fragment was cloned into a baculovirus transplace vector (pFastBac™-HT (purchased from GIBCO BRL)) to produce a recombinant construct. […] EGFR was purchased from Sigma (Production No. E-2645).
To the suspension of Sf9 cells (3×10^8 cells) in SF-900II medium (purchased from Invitrogen) containing 2% FBS was added a solution of HGFR transfected baculovirus above (4 ml), followed by a shaking culture at 27° C. for 48 hrs. The cells infected with the HGFR transfected baculovirus were centrifuged at 1,000 rpm, 4° C. for 5 min to remove the supernatant. The precipitated infected cells were suspended in 80 ml of ice-cold PBS, and centrifuged at 1,000 rpm, 4° C. for 5 min to remove the supernatant. The precipitated infected cells were suspended in 40 ml of ice-cold Lysis Buffer (50 mM Tris-HCl (pH 8.5), 5 mM 2-mercaptoethanol, 100 mM KCl, 1 mM PMSF and 1% (v/v) NP-40). The suspension was centrifuged at 12,000 rpm, 4° C. for 30 min to provide a supernatant.
The supernatant was loaded onto an Ni-NTA agarose column (3 ml, purchased from Qiagen) equilibrated with 30 ml of Buffer A (20 mM Tris-HCl (pH 8.5), 5 mM 2-mercaptoethanol, 500 mM KCl, 20 mM imidazole and 10% (v/v) glycerol). The column was washed with 30 ml of Buffer A, 6 ml of Buffer B (20 mM Tris-HCl (pH 8.5), 5 mM 2-mercaptoethanol, 1 M KCl, and 10% (v/v) glycerol) and 6 ml of Buffer A in this order. Then, the column was eluted with 6 ml of Buffer C (20 mM Tris-HCl (pH 8.5), 5 mM 2-mercaptoethanol, 100 mM KCl, 100 mM imidazole, and 10% (v/v) glycerol) to provide a fraction. The fraction was entrapped in a dialysis membrane (purchased from Spectrum Laboratories), dialyzed at 4° C. overnight with 1 L of dialysis buffer (20 mM Tris-HCl (pH 7.5), 10% (v/v) glycerol, 1 mM dithiothreitol, 0.1 mM Na3VO4 and 0.1 mM EGTA), and stored at −80° C. until used. […] The VEGFR2 cytoplasmic domain, the FGFR1 cytoplasmic domain, and the PDGFRβ cytoplasmic domain were fused with six histidine at the N terminus by the similar method to produce respective recombinant proteins (His6-VEGFR2, His6-FGFR1, and His6-PDGFRβ).
To each well of a 96-well round plate (purchased from NUNC, Production No. 163320) were added 10 μl of a solution for kinase reaction (200 mM Hepes (pH 7.4), 80 mM MgCl2, 16 mM MnCl2 and 2 mM Na3VO4), 250 ng of biotinylated poly(Glu4: Tyr1) (biotin-poly(GT), purchased from Japan Schering) (6 μl, 15-fold diluted with distilled water), 30 ng of His6-HGFR (10 μl, 60-fold diluted with 0.4% BSA) and a test substance dissolved in dimethylsulfoxide (4 μl, 100-fold diluted with 0.1% BSA) to mess up to 30 μl. To the well was added 10 μl of 4 μM ATP (purchased from Sigma) diluted with distilled water to incubate at 30° C. for 10 min, followed by adding 10 μl of 500 mM EDTA (pH 8.0) (purchased from Wako Pure Chemicals) to provide a kinase reaction solution.
The tyrosine-phosphorylated biotin-poly(GT) was detected using the Homogenous Time-Resolved Fluorescence (HTRF) method (Analytical Biochemistry, 269, 94-104, 1999).
(In general: In TR-FRET formats the signal depends on donor and acceptor labels being close together.)
Broadly, the IC50 is the concentration that gives 50% inhibition. The low end stands for greater potency, the high end for weaker potency. In turn, `O=C(Nc1cc(Oc2ccc(NC(=O)C3(C(=O)Nc4ccc(F)cc4)CC3)cc2)ccn1)N1CCC(N2CCC2)CC1` [Example 13, N-{4-[(2-{[(4-Azetidin-1-ylpiperidin-1-yl)carbonyl]amino}pyridin-4-yl)oxy]phenyl}-N′-(4-fluorophenyl)cyclopropane-1,1-dicarboxamide] displayed an IC50 of 55 nM.
Under `CN(C)C1CCN(C(=O)Nc2cc(Oc3ccc(NC(=O)C4(C(=O)Nc5ccc(F)cc5)CC4)cc3F)ccn2)CC1` [Example 23, N-(4-{[2-({[4-(Dimethylamino)piperidin-1-yl]carbonyl}amino)pyridin-4-yl]oxy}-3-fluorophenyl)-N′-(4-fluorophenyl)cyclopropane-1,1-dicarboxamide] stands 45 nM; under `O=C(Nc1cc(Oc2ccc(NC(=O)C3(C(=O)Nc4ccc(F)cc4)CC3)c(F)c2)ccn1)N1CC(N2CCC2)C1` [Example 73, N-[4-({2-[(1,3′-Biazetidin-1′-ylcarbonyl)amino]pyridin-4-yl}oxy)-2-fluorophenyl]-N′-(4-fluorophenyl)cyclopropane-1,1-dicarboxamide], 105 nM.
In the case of `CN(C)C1CCN(C(=O)Nc2cc(Oc3cc(F)c(NC(=O)C4(C(=O)Nc5ccc(F)cc5)CC4)cc3F)ncn2)CC1` [Example 102, N-(4-{[4-({[4-(Dimethylamino)piperidin-1-yl]carbonyl}amino)pyrimidin-6-yl]oxy}-2,5-difluorophenyl)-N′-(4-fluorophenyl)cyclopropane-1,1-dicarboxamide], the IC50 amounted to 72 nM.
Under `CCN(CC)CCCNC(=O)Nc1cc(Oc2ccc(NC(=O)C3(C(=O)Nc4ccc(F)cc4)CC3)cc2C)ccn1` [Example 45, N-[4-({2-[({[3-(Diethylamino)propyl]amino}carbonyl)amino]pyridin-4-yl}oxy)-3-methylphenyl]-N′-(4-fluorophenyl)cyclopropane-1,1-dicarboxamide] stands 240 nM.
Under `O=C(Nc1cc(Oc2ccc(NC(=O)C3(C(=O)Nc4ccc(F)cc4)CC3)c(F)c2F)ccn1)N1CC(O)C1` [Example 106, N-[2,3-Difluoro-4-[(2-{[(3-hydroxyazetidin-1-yl)carbonyl]amino}pyridin-4-yl)oxy]phenyl}-N′-(4-fluorophenyl)cyclopropane-1,1-dicarboxamide] stands 16 nM.
In turn, `CN(C)[C@@H]1CCN(C(=O)Nc2cc(Oc3ccc(NC(=O)C4(C(=O)Nc5ccccc5)CC4)c(F)c3)ccn2)C1` [Example 59, N-(4-{[2-({[(3R)-3-(Dimethylamino)pyrrolidin-1-yl]carbonyl}amino)pyridin-4-yl]oxy}-2-fluorophenyl)-N′-phenylcyclopropane-1,1-dicarboxamide] yielded an IC50 of 75 nM.
Under `CN(C)CC1CCN(C(=O)Nc2cc(Oc3ccc(NC(=O)C4(C(=O)Nc5ccc(F)cc5)CC4)c(F)c3)ccn2)CC1` [Example 8, N-[4-({2-[({4-[(Dimethylamino)methyl]piperidin-1-yl}carbonyl)amino]pyridin-4-yl}oxy)-2-fluorophenyl]-N′-(4-fluorophenyl)cyclopropane-1,1-dicarboxamide] stands 48 nM.
To `CN(C)C1CN(C2CCN(C(=O)Nc3cc(Oc4ccc(NC(=O)C5(C(=O)Nc6ccccc6)CC5)c(F)c4)ccn3)CC2)C1` [Example 55] belongs 120 nM.
As for `O=C(Nc1cc(Oc2ccc(NC(=O)C3(C(=O)Nc4ccc(F)cc4)CC3)cc2)ccn1)N1CCCC1` [Example 69, N-(4-Fluorophenyl)-N′-[4-({2-[(pyrrolidin-1-ylcarbonyl)amino]pyridin-4-yl}oxy)phenyl]cyclopropane-1,1-dicarboxamide], the midpoint of inhibition, the IC50, lay at 31 nM.
`CN(C)[C@@H]1CCN(C(=O)Nc2cc(Oc3ccc(NC(=O)C4(C(=O)Nc5ccc(F)cc5)CC4)cc3F)ccn2)C1` [Example 36, N-(4-{[2-({[(3R)-3-(Dimethylamino)pyrrolidin-1-yl]carbonyl}amino)pyridin-4-yl]oxy}-3-fluorophenyl)-N′-(4-fluorophenyl)cyclopropane-1,1-dicarboxamide]: the IC50 came to 46 nM.
Under `COC1CN(C(=O)Nc2cc(Oc3ccc(NC(=O)C4(C(=O)Nc5ccc(F)cc5)CC4)cc3F)ccn2)C1` [Example 79] stands 14 nM.
Under `O=C(Nc1cc(Oc2ccc(NC(=O)C3(C(=O)Nc4ccc(F)cc4)CC3)cc2)ccn1)N1CCN(CCN2CCC2)CC1` [Example 28, N-(4-{[2-({[4-(2-Azetidin-1-ylethyl)piperazin-1-yl]carbonyl}amino)pyridin-4-yl]oxy}phenyl)-N′-(4-fluorophenyl)cyclopropane-1,1-dicarboxamide] stands 72 nM; under `O=C(Nc1cc(Oc2ccc(NC(=O)C3(C(=O)Nc4ccc(F)cc4)CC3)cc2F)ccn1)N1CCC(N2CCCC2)CC1` [Example 10, N-(4-Fluorophenyl)-N′-{3-fluoro-4-[(2-{[(4-pyrrolidin-1-ylpiperidin-1-yl)carbonyl]amino}pyridin-4-yl)oxy]phenyl}cyclopropane-1,1-dicarboxamide], 54 nM.
To `CN(C)CC1CN(C(=O)Nc2cc(Oc3ccc(NC(=O)C4(C(=O)Nc5ccc(F)cc5)CC4)c(F)c3F)ccn2)C1` [Example 107, N-[4-({2-[({3-[(Dimethylamino)methyl]azetidine-1-yl}carbonyl)amino]pyridin-4-yl}oxy)-2,3-difluorophenyl]-N′-(4-fluorophenyl)cyclopropane-1,1-dicarboxamide] belongs 61 nM; to `O=C(Nc1cc(Oc2cc(F)c(NC(=O)C3(C(=O)Nc4ccc(F)cc4)CC3)cc2F)ncn1)N1CC(CO)C1` [Example 99, N-(2,5-Difluoro-4-{[4-({[3-(hydroxymethyl)azetidin-1-yl]carbonyl}amino)pyrimidin-6-yl]oxy}phenyl)-N′-(4-fluorophenyl)cyclopropane-1,1-dicarboxamide], 33 nM; to `CN(C)C1CCN(C(=O)Nc2cc(Oc3cc(F)c(NC(=O)C4(C(=O)Nc5ccc(F)cc5)CC4)cc3F)ccn2)CC1` [Example 103, N-(4-{[2-({[4-(Dimethylamino)piperidin-1-yl]carbonyl}amino)pyridin-4-yl]oxy}-2,5-difluorophenyl)-N′-(4-fluorophenyl)cyclopropane-1,1-dicarboxamide], 57 nM.
`O=C(Nc1cc(Oc2ccc(NC(=O)C3(C(=O)Nc4ccc(F)cc4)CC3)c(F)c2)ccn1)N1CCOCC1` [Example 63, N-[2-Fluoro-4-({2-[(morpholin-4-ylcarbonyl)amino]pyridin-4-yl}oxy)phenyl]-N′-(4-fluorophenyl)cyclopropane-1,1-dicarboxamide]: it took 14 nM to reach half-maximal inhibition (IC50).
To `CN(C)CCN1CCC(N(C)C(=O)Nc2cc(Oc3ccc(NC(=O)C4(C(=O)Nc5ccc(F)cc5)CC4)cc3)ccn2)CC1` [Example 39, N-(4-{[2-({[{1-[2-(Dimethylamino)ethyl]piperidin-4-yl}(methyl)amino]carbonyl}amino)pyridin-4-yl]oxy}phenyl)-N′-(4-fluorophenyl)cyclopropane-1,1-dicarboxamide] belongs 100 nM; to `CN1CCC(N(C)C(=O)Nc2cc(Oc3ccc(NC(=O)C4(C(=O)Nc5ccccc5F)CC4)c(F)c3)ccn2)CC1` [Example 57, N-(2-Fluoro-4-{[2-({[methyl(1-methylpiperidin-4-yl)amino]carbonyl}amino)pyridin-4-yl]oxy}phenyl)-N′-(2-fluorophenyl)cyclopropane-1,1-dicarboxamide], 180 nM.
